Measurements: patent publication US20250051277A1, “DELIVERY OF THERAPEUTIC ALKALOID COMPOUNDS” (Sensorium Therapeutics, Inc., priority 2021, published 2025)
Where two headings read alike, the source gives them in different places.

Tests used:
[1] = Hydrolysis Assay of Example A1 (conversion by LCMS); type: physicochemical; details: for Conversion (%) / Notes (hydrolysis): 0.5 mM, 0-24 h
Description: The hydrolysis kinetics was under a certain temperature and measured by LCMS at a certain time interval. The corresponding LCMS chromatograms were recorded and the conversions were calculated. The hydrolysis conditions and the data were summarized in below table. LCMS spectra were obtained using Agilent 1200/G1956A or SHIMADZU LCMS-2020. Standard LCMS conditions were as follows (running time 1.55 minutes): • Acidic condition: Mobile Phase A: 0.0375% TFA in water (v/v). Mobile Phase B: 0.01875% TFA in acetonitrile (v/v); Column: Kinetex EVO C18 30*2.1 mm, 5 μm. • Basic condition: Mobile Phase A: 0.025% NH3·H2O in water (v/v). Mobile Phase B: Acetonitrile; Column: Kinetex EVO C18 2.1×30 mm, 5 μm. • Conversion (%)=peak area 1/(peak area 1+peak area 2)*100%, peak area 1 is the integration of hydrolyzed product, peak area 2 is the integration of starting material.

[2] = Description: Male C57/BL6 mice were used to evaluate each compound, with n=3 mice/time point.
Animals were administered through intravenous route with solution formulation at 2 mg/kg dose. […] Following blood collection, immediately, animals were sacrificed, and vena-cava was cut open and blood was drained. […] Brain samples were collected from set of three mice at each time point. […] Brain samples were homogenized using 2 volumes of ice-cold PBS (pH-7.4) of brain weight. […] Concentrations of compound (or compound and metabolite) in mouse plasma and brain samples were determined by fit for purpose LC-MS/MS method.

[3] = Plasma Stability Assay of Example A3, human plasma; details: 5 μM, 37° C., % of prodrug compound remaining
[4] = Oral dose pharmacokinetic study in mice (10 mg/kg); type: in vivo, male C57BL/6 mice
Excerpt: The formulation vehicle used was normal saline.

[5] = 2 mg/kg iv of labelled compound, rat
Description: Brain samples were homogenized with PBS (W/V, 1:3). Plasma/brain samples were mixed with acetonitrile containing internal standard. The samples were vortexed then centrifuged at 4 degrees Celsius for 15 minutes. The supernatant was diluted with water (1:2 V/V) and analyzed by LC/MS/MS for quantitative analysis. […] Area under the curve (AUC) was calculated and divided by dose to account for molecular weight difference of prodrug and metabolite (AUC/D).

[6] = Plasma Stability Assay of Example A3, mouse plasma; details: 5 μM, 37° C., % of prodrug compound remaining
[7] = Plasma Stability Assay of Example A4, rat plasma; details: 37° C., 10 μM
[8] = Plasma Stability Assay of Example A4, human plasma; details: 37° C., 10 μM
[9] = Pharmacokinetics of 043 and 001 in mice after oral 043 (75 mg/kg); type: in vivo, male C57BL/6 mice; details: analyte = label, single oral administration of 043, 75 mg/kg, male C57BL/6 mice
Description: Total twelve male mice were used in this study. […] The formulation vehicle used was normal saline.
The plasma and brain concentration-time data of 043 and 001 was used for the pharmacokinetic analysis.
The extraction procedure for plasma/brain samples and the spiked plasma/brain calibration standards were identical:
A 25 μL of study sample plasma/brain (dilution applied to some samples) or spiked plasma calibration standard was added to individual pre-labeled micro-centrifuge tubes followed by 100 μL of internal standard prepared in acetonitrile (Glipizide-500 ng/mL) was added except for blank, where 100 μL of acetonitrile was added. Samples were vortexed for 5 minutes. Samples were centrifuged for 10 minutes at a speed of 4000 rpm at 4° C. Following centrifugation, 100 μL of clear supernatant was transferred in 96 well plates and analyzed using LC-MS/MS.

[10] = in vivo; cited from earlier work
[11] = 2 mg/kg iv of labelled compound, mice
[12] = 10 mg/kg po of labelled compound, mice

COc1ccc([C@@]23CCC(=O)C[C@@H]2N(C)CC3)cc1OC [Compound 001, mesembrine, reference compound]
hydrolysis in the Hydrolysis Assay ([1]; pH 2.0 in 0.01 M HCl to pH 7.4 in 20 mM PBS, 25° C. to 40° C.): did not further hydrolyze
Conversion (%) ([1]; pH = 2.0, 25° C., 0.01M HCl): 0%
Notes (hydrolysis) ([1]; pH = 2.0, 25° C., 0.01M HCl): Stable
Conversion (%) ([1]; pH = 2.0, 40° C., 0.01M HCl): 0%
Notes (hydrolysis) ([1]; pH = 2.0, 40° C., 0.01M HCl): Stable
Conversion (%) ([1]; pH = 7.4, 25° C., PBS (20 mM)): 0%
Notes (hydrolysis) ([1]; pH = 7.4, 25° C., PBS (20 mM)): Stable
Conversion (%) ([1]; pH = 7.4, 40° C., PBS (20 mM)): 0%
Notes (hydrolysis) ([1]; pH = 7.4, 40° C., PBS (20 mM)): Stable
quantifiable levels of 001 in brain up to [2, 11]: 60 min
quantifiable levels of 001 in plasma up to [2, 11]: 30 min
Plasma levels of 001 ([2]; at 60, 120, 180 min, 2 mg/kg iv of 001, mice): not detectable
Brain levels of 001 ([2]; at 120, 180 min, 2 mg/kg iv of 001, mice): not detectable
Human Plasma Prodrug (%) ([3]; 0 min): 100.0%
Human Plasma Prodrug (%) ([3]; 15 min): >99%
Human Plasma Prodrug (%) ([3]; 30 min): >99%
Human Plasma Prodrug (%) ([3]; 60 min): >99%
Human Plasma Prodrug (%) ([3]; 120 min): >99%
Human Plasma Prodrug (%) ([3]; 240 min): >99%
001 quantifiable in brain up to [4, 12]: 60 min
001 quantifiable in plasma up to [4, 12]: 2 h
Brain levels of 001 ([4]; at 90, 120, 180 min, 10 mg/kg po of 001, mice): not detectable
Plasma levels of 001 ([4]; at 180 min, 10 mg/kg po of 001, mice): not detectable
bioavailability (% F) ([4]; mice, oral 10 mg/kg): < 10%
001 brain levels quantifiable up to [5]: 2 h
Mouse Plasma Prodrug (%) ([6]; 0 min): 100.0%
Mouse Plasma Prodrug (%) ([6]; 15 min): >99%
Mouse Plasma Prodrug (%) ([6]; 30 min): 97.8%
Mouse Plasma Prodrug (%) ([6]; 60 min): >99%
Mouse Plasma Prodrug (%) ([6]; 120 min): >99%
Mouse Plasma Prodrug (%) ([6]; 240 min): >99%
Compound 001 (%) (metabolite mesembrine), Rat Plasma ([7]; time 0.0 min): 100.0%
Compound 001 (%) (metabolite mesembrine), Rat Plasma ([7]; time 10 min): >99%
Compound 001 (%) (metabolite mesembrine), Rat Plasma ([7]; time 30 min): >99%
Compound 001 (%) (metabolite mesembrine), Rat Plasma ([7]; time 60 min): 97.3%
Compound 001 (%) (metabolite mesembrine), Rat Plasma ([7]; time 120 min): >99%
Compound 001 (%) (metabolite mesembrine), Rat Plasma ([7]; time 240 min): 98.3%
Compound 001 (%) (metabolite mesembrine), Human Plasma ([8]; time 0.0 min): 100.0%
Compound 001 (%) (metabolite mesembrine), Human Plasma ([8]; time 10 min): >99%
Compound 001 (%) (metabolite mesembrine), Human Plasma ([8]; time 30 min): >99%
Compound 001 (%) (metabolite mesembrine), Human Plasma ([8]; time 60 min): >99%
Compound 001 (%) (metabolite mesembrine), Human Plasma ([8]; time 120 min): >99%
Compound 001 (%) (metabolite mesembrine), Human Plasma ([8]; time 240 min): >99%
Brain concentrations quantifiable up to [9]: 4 h
brain exposure-Kp [9]: 2.55
AUClast ([9]; brain): 0.49804 µg·h/mL
Cmax ([9]; brain): 0.60212 µg/mL
Tmax ([9]; brain): 30 min
AUClast ([9]; plasma): 0.19538 µg·h/mL
Cmax ([9]; plasma): 0.23083 µg/mL
Tmax ([9]; plasma): 30 min

(−) mesembrine
half-life in plasma [10]: less than 2 hours
